{"source": "patent US20080182895A1", "about": "(priority 2006, published 2008)", "key": {"1b, BB7 replicon (WT)": {"test_system": "1b, BB7 replicon (WT)", "assay": "Replicon 3-day assay, wild type", "format": "cell-based, Hepatitis C virus", "conditions": "for EC50: Hepatitis C virus", "description": "(§1) pBB7-replicon variant DNAs were linearized with Sca I, and in vitro transcription was performed using Ambion's […]® T7 High Yield Transcription kit (Austin, Tex.). Purified RNA transcripts were electroporated into Huh-7 cells in quadruplicates using a Biorad GENE PULSER® Electroporation System (Setting: 270V, 950 μF) (Hercules, Calif.). Stably transfected replicon variant cell lines were initially selected with 0.25 mg/ml G418 and stepped up to 1 mg/ml before further testing. One cell plate was stained with Crystal Violet to visualize the number of colonies and determine the colony formation efficiency. Individual cell clones from each plate were pooled and expanded for drug susceptibility testing.\n(§2) The contribution of individual amino acid changes on drug resistance was assessed in replicon variants containing single amino acid mutations in NS5B in the background of the genotype 1b, BB7 adaptive replicon (Blight et al. (2000) Science 290:1972-74).\n(§3) Drug susceptibility of the replicon-containing cells to various compounds was evaluated as described previously (Howe et al. (2004) Antimicrobial Agents Chem. 48:4813-21). Briefly, cells were treated with increasing concentrations of compounds in medium containing 2% FCS and no G418 for three days at 37° C. and 5% CO2. After incubation, total RNA from the replicon-containing cells was isolated. The levels of HCV, glyceraldehyde 3-phosphate dehydrogenase (GAPDH) and ribosomal (rRNA) RNAs were quantified using TAQMAN® (PE Applied Biosystems, Foster City, Calif.) reverse transcriptase PCR reactions. The amounts of HCV, 18S ribosomal, and GAPDH RNAs in each sample were estimated by comparing the number of cycles during the exponential phase of the PCR amplification with those in the corresponding standard curves. HCV RNA standards used for the construction of the standard curve were prepared by extracting the total RNA from the Clone A cells. The RNA sample was sent to National Genetics Institute to quantify HCV RNA. Total RNA extracted from Clone A cells was quantified by O.D.260 measurement and used for construction of the standard curves of rRNA and GAPDH. The concentrations of the compounds that inhibit 50% of the HCV RNA level (EC50) were determined using the MDL® LIFE SCIENCE WORKBENCH® (LSW) Data Analysis software (MDL Information Systems, San Leandro, Calif.) in Microsoft EXCEL®. The amounts of HCV or GAPDH RNAs in the samples were expressed as HCV RNA (copies) or GAPDH (ng), respectively, per μg of total RNA using rRNA as a marker for total RNA measurement."}, "1b, BB7-C316F replicon": {"test_system": "1b, BB7-C316F replicon", "assay": "Replicon variant 3-day assay", "format": "cell-based, Hepatitis C virus", "description": "as §1, §2, §3"}, "1b, BB7-I363V replicon": {"test_system": "1b, BB7-I363V replicon", "assay": "Replicon variant 3-day assay", "format": "cell-based, Hepatitis C virus", "description": "as §1, §2, §3"}, "1b, BB7-L314F replicon": {"test_system": "1b, BB7-L314F replicon", "assay": "Replicon variant 3-day assay", "format": "cell-based, Hepatitis C virus", "description": "as §1, §2, §3"}, "1b, BB7-M414I replicon": {"test_system": "1b, BB7-M414I replicon", "assay": "Replicon variant 3-day assay", "format": "cell-based, Hepatitis C virus", "description": "as §1, §2, §3"}, "1b, BB7-M414V replicon": {"test_system": "1b, BB7-M414V replicon", "assay": "Replicon variant 3-day assay", "format": "cell-based, Hepatitis C virus", "description": "as §1, §2, §3"}, "1b, BB7-S365A replicon": {"test_system": "1b, BB7-S365A replicon", "assay": "Replicon variant 3-day assay", "format": "cell-based, Hepatitis C virus", "description": "as §1, §2, §3"}, "1b, BB7-S365T replicon": {"test_system": "1b, BB7-S365T replicon", "assay": "Replicon variant 3-day assay", "format": "cell-based, Hepatitis C virus", "description": "as §1, §2, §3"}, "1b, BB7-S368F replicon": {"test_system": "1b, BB7-S368F replicon", "assay": "Replicon variant 3-day assay", "format": "cell-based, Hepatitis C virus", "description": "as §1, §2, §3"}, "[1]": {"test_system": "recombinant genotype 1b HCV NS5B enzyme variants", "assay": "NS5B polymerase biochemical assay, several enzymes taken together", "design": "species or system Hepatitis C virus genotype 1b", "description": "All NS5B enzymes were expressed and purified according to the protocol for NS5B-BB7dCT21-His as described (Howe et al. (2004) Antimicrobial Agents Chem. 48:4813-21). Briefly, expression plasmids were transformed into E. coli cells and NS5B expression was initiated by the addition of isopropyl-beta-D-thiogalactopyranoside (IPTG). After 4 to 6 hours of incubation the cells were harvested and lysed. NS5B enzymes were purified by chromatography using a nickel affinity column (Talon, B D Biosciences, Clontech Laboratories, Inc., Mountain View, Calif.)) followed by a cation exchange column (Poros H S, Applied Biosystems, Foster City, Calif.)."}}, "note": "Read-outs that look alike come from different tables or passages of the source.", "data": [{"smiles": "CNC(=O)c1c(-c2ccc(F)cc2)oc2cc(N(CCO)S(C)(=O)=O)c(C3CC3)cc12", "note": "[HCV-796, 5-cyclopropyl-2-(4-fluorophenyl)-6-[(2-hydroxyethyl)(methylsulfonyl)amino]-N-methyl-1-benzofuran-3-carboxamide]", "values": [{"measurement": "Viral Load Reduction", "setting": "1b, BB7 replicon (WT); 1b, BB7, 2240 nM HCV-796, 3-day assay", "result": "1.9 ± 0.3", "unit": "log"}, {"measurement": "EC50", "setting": "1b, BB7 replicon (WT)", "result": 8.6, "unit": "nM"}, {"measurement": "EC50", "setting": "1b, BB7 replicon (WT); 72 h, 1b, BB7, 3-day assay, read-out: HCV RNA EC50 (nM) ± SD", "result": "3 ± 1", "unit": "nM"}, {"measurement": "Fold Resistance", "setting": "1b, BB7-C316F replicon; BB7-C316F vs 1b, BB7", "result": 130, "unit": "fold"}, {"measurement": "Viral Load Reduction", "setting": "1b, BB7-C316F replicon; BB7-C316F, 2240 nM HCV-796, 3-day assay", "result": "0.8 ± 0.5", "unit": "log"}, {"measurement": "EC50", "setting": "1b, BB7-C316F replicon; Hepatitis C virus, 72 h, BB7-C316F, 3-day assay, read-out: HCV RNA EC50 (nM) ± SD", "result": 392, "unit": "nM"}, {"measurement": "Fold Resistance", "setting": "1b, BB7-I363V replicon; BB7-I363V vs 1b, BB7", "result": 5, "unit": "fold"}, {"measurement": "Viral Load Reduction", "setting": "1b, BB7-I363V replicon; BB7-I363V, 2240 nM HCV-796, 3-day assay", "result": "1.4 ± 0.1", "unit": "log"}, {"measurement": "EC50", "setting": "1b, BB7-I363V replicon; Hepatitis C virus, 72 h, BB7-I363V, 3-day assay, read-out: HCV RNA EC50 (nM) ± SD", "result": "16 ± 5", "unit": "nM"}, {"measurement": "Fold Resistance", "setting": "1b, BB7-L314F replicon; 1b, BB7-L314F vs 1b, BB7", "result": 1, "unit": "fold"}, {"measurement": "Viral Load Reduction", "setting": "1b, BB7-L314F replicon; 1b, BB7-L314F, 2240 nM HCV-796, 3-day assay", "result": "1.6 ± 0.3", "unit": "log"}, {"measurement": "EC50", "setting": "1b, BB7-L314F replicon; Hepatitis C virus, 72 h, 1b, BB7-L314F, 3-day assay, read-out: HCV RNA EC50 (nM) ± SD", "result": "4 ± 2", "unit": "nM"}, {"measurement": "change of susceptibility to HCV-796 (in words)", "setting": "1b, BB7-L314F replicon; L314F replicon vs wild type", "result": "did not change the susceptibility"}, {"measurement": "Fold Resistance", "setting": "1b, BB7-M414I replicon; BB7-M414I vs 1b, BB7", "result": 8, "unit": "fold"}, {"measurement": "Viral Load Reduction", "setting": "1b, BB7-M414I replicon; BB7-M414I, 2240 nM HCV-796, 3-day assay", "result": "1.5 ± 0.2", "unit": "log"}, {"measurement": "EC50", "setting": "1b, BB7-M414I replicon; Hepatitis C virus, 72 h, BB7-M414I, 3-day assay, read-out: HCV RNA EC50 (nM) ± SD", "result": "23 ± 3", "unit": "nM"}, {"measurement": "Fold Resistance", "setting": "1b, BB7-M414V replicon; BB7-M414V vs 1b, BB7", "result": 3, "unit": "fold"}, {"measurement": "Viral Load Reduction", "setting": "1b, BB7-M414V replicon; BB7-M414V, 2240 nM HCV-796, 3-day assay", "result": "1.5 ± 0.1", "unit": "log"}, {"measurement": "EC50", "setting": "1b, BB7-M414V replicon; Hepatitis C virus, 72 h, BB7-M414V, 3-day assay, read-out: HCV RNA EC50 (nM) ± SD", "result": "8 ± 1", "unit": "nM"}, {"measurement": "Fold Resistance", "setting": "1b, BB7-S365A replicon; BB7-S365A vs 1b, BB7", "result": 41, "unit": "fold"}, {"measurement": "Viral Load Reduction", "setting": "1b, BB7-S365A replicon; BB7-S365A, 2240 nM HCV-796, 3-day assay", "result": "1.7 ± 0.1", "unit": "log"}, {"measurement": "EC50", "setting": "1b, BB7-S365A replicon; Hepatitis C virus, 72 h, BB7-S365A, 3-day assay, read-out: HCV RNA EC50 (nM) ± SD", "result": "124 ± 41", "unit": "nM"}, {"measurement": "Fold Resistance", "setting": "1b, BB7-S365T replicon; BB7-S365T vs 1b, BB7", "result": 212, "unit": "fold"}, {"measurement": "Viral Load Reduction", "setting": "1b, BB7-S365T replicon; BB7-S365T, 2240 nM HCV-796, 3-day assay", "result": "0.6 ± 0.1", "unit": "log"}, {"measurement": "EC50", "setting": "1b, BB7-S365T replicon; Hepatitis C virus, 72 h, BB7-S365T, 3-day assay, read-out: HCV RNA EC50 (nM) ± SD", "result": "643 ± 168", "unit": "nM"}, {"measurement": "Fold Resistance", "setting": "1b, BB7-S368F replicon; BB7-S368F vs 1b, BB7", "result": 2, "unit": "fold"}, {"measurement": "Viral Load Reduction", "setting": "1b, BB7-S368F replicon; BB7-S368F, 2240 nM HCV-796, 3-day assay", "result": "1.4 ± 0.3", "unit": "log"}, {"measurement": "EC50", "setting": "1b, BB7-S368F replicon; Hepatitis C virus, 72 h, BB7-S368F, 3-day assay, read-out: HCV RNA EC50 (nM) ± SD", "result": "5 ± 2", "unit": "nM"}, {"measurement": "difference in drug susceptibility (in words)", "setting": "[1]; M414V/I and I363V enzyme variants vs wild type enzyme", "result": "no appreciable difference in drug susceptibility"}, {"measurement": "susceptibility of Asn316 enzymes compared with Cys316 enzymes (in words)", "setting": "[1]; NS5B enzymes of genotype 1b isolates BK and J4, data not shown", "result": "less susceptible"}]}]}
